Results on two compounds are retold here after ChEMBL document CHEMBL1649461, “Fitness cost of VanA-type vancomycin resistance in methicillin-resistant Staphylococcus aureus” (2009).

As a reminder, the MIC is the lowest concentration found to suppress growth. Higher therefore signals a need for much substance.

Assay type in all cases: functional
Assay [1] deals with Staphylococcus aureus. Put plainly: Antimicrobial activity against VanA-type vancomycin-resistant and methicillin-resistant Staphylococcus aureus 5 by broth dilution method. A general note: Dilution methods test growth across graded concentrations, often in twofold steps.
The test system of assay [2] is Staphylococcus aureus. Description: Antimicrobial activity against VanA-type vancomycin-resistant and methicillin-resistant Staphylococcus aureus 6 by broth dilution method.
The test system of assay [3] is Staphylococcus aureus. Description: Antimicrobial activity against VanA-type vancomycin-resistant and methicillin-resistant Staphylococcus aureus 1 by broth dilution method.
Assay [4] deals with Staphylococcus aureus. Description: Antimicrobial activity against methicillin-resistant Staphylococcus aureus HIP11713 by broth dilution method.

SMILES strings stand for the structures. Values after ≈ are worked out from the molar mass of the structure shown.

Consider `CC(=O)N[C@@H]1[C@H](Oc2c3cc4cc2Oc2ccc(cc2Cl)[C@@H](O[C@@H]2O[C@@H](CO)[C@@H](O)[C@H](O)[C@@H]2NC(C)=O)[C@@H]2NC(=O)[C@H](NC(=O)[C@@H]4NC(=O)[C@H]4NC(=O)[C@@H](Cc5ccc(c(Cl)c5)O3)NC(=O)[C@H](N)c3ccc(O)c(c3)Oc3cc(O)cc4c3)c3ccc(O)c(c3)-c3c(O[C@H]4O[C@H](CO)[C@@H](O)[C@@H](O)[C@@H]4O)cc(O)cc3[C@@H](C(=O)O)NC2=O)O[C@@H](CO)[C@@H](O)[C@@H]1O`, for which the MIC was found to be 64 µg/mL (≈ 36.2 µM) with Staphylococcus aureus [1], 128 µg/mL (≈ 72.4 µM) against Staphylococcus aureus [2], 256 µg/mL (≈ 145 µM) in the assay on Staphylococcus aureus [3] and 1 µg/mL (≈ 0.566 µM) with Staphylococcus aureus [4].

Turning to `CN[C@H](CC(C)C)C(=O)N[C@H]1C(=O)N[C@@H](CC(N)=O)C(=O)N[C@H]2C(=O)N[C@H]3C(=O)N[C@H](C(=O)N[C@H](C(=O)O)c4cc(O)cc(O)c4-c4cc3ccc4O)[C@H](O)c3ccc(c(Cl)c3)Oc3cc2cc(c3O[C@@H]2O[C@H](CO)[C@@H](O)[C@H](O)[C@H]2O[C@H]2C[C@](C)(N)[C@H](O)[C@H](C)O2)Oc2ccc(cc2Cl)[C@H]1O` [VANCOMYCIN], the MIC amounted to 1020 µg/mL (≈ 707 µM) in the assay on Staphylococcus aureus [1], 1020 µg/mL (≈ 707 µM) with Staphylococcus aureus [2] and 2050 µg/mL (≈ 1410 µM) against Staphylococcus aureus [3].
